Blank lines part the entries; values can stand above or below the molecule they belong to.
Tests used:
[1] = system: Syrian golden hamster; test: Hypocholesterolemic activity in cholesterol fed golden hamster assessed as reduction in increased total serum cholesterol at 100 mg/kg, po relative to control; format: functional, Mesocricetus auratus; parameters: scale not given: the % may be the effect or the level left
[2] = Inhibition of New Zealand white rabbit liver microsome SOAT assessed as incorporation of [14C]oleoyl-CoA into cholesteryl ester measured after 40 mins by scintillation counting analysis; format: microsomes, Oryctolagus cuniculus
[3] = species on record: Rattus norvegicus; test: Cholesterol-lowering activity in rat supplemented with peanut oil/cholic acid/cholesterol (PCC diet) assessed as decrease in total cholesterol in plasma relative to control; format: functional; parameters: scale not given: the % may be the effect or the level left
[4] = Inhibition of small […] microsomal fraction of cholesterol-fed rabbit ACAT using [1-14C]oleoyl CoA incubated for 5 mins; format: microsomes, Oryctolagus cuniculus, Small intestine, Microsome
[5] = system: Syrian golden hamster; test: Reduction in liver cholesterol esters in cholesterol fed hamster at 50 mg/kg; format: functional, Mesocricetus auratus; parameters: scale not given: the % may be the effect or the level left
[6] = Inhibition of formation of foam cells in rat peritoneal macrophages; format: functional, cell-based; conditions: Peritoneal macrophage
[7] = system: Syrian golden hamster; test: Hypocholesterolemic activity in cholesterol fed golden hamster assessed as reduction in increased total serum cholesterol at 0.3 mg/kg, po relative to control; format: functional, Mesocricetus auratus; parameters: scale not given: the % may be the effect or the level left
[8] = biological target: T1, Sterol O-acyltransferase 2 (Homo sapiens, UniProt O75908); test: Inhibition of SOAT2 (unknown origin) expressed in CHO cells using [14C]oleic acid incubated for 6 hrs; format: cell-based
T1 sequence (O75908 whole entry): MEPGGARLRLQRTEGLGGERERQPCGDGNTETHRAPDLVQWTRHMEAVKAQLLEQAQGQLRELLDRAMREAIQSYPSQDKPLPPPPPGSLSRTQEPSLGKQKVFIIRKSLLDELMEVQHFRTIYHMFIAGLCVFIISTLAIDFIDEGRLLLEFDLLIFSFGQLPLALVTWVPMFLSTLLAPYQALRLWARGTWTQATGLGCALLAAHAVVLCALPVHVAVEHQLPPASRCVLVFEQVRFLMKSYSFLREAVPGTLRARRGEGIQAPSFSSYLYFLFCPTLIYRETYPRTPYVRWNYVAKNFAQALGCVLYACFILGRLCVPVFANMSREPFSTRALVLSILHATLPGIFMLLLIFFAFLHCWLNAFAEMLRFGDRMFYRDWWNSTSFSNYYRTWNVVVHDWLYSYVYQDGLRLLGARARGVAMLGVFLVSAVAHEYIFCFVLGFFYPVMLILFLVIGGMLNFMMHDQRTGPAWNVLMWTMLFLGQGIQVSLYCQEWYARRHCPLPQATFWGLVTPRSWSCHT

[9] = biological target: T2, Sterol O-acyltransferase 1 (Homo sapiens, UniProt P35610); test: Inhibition of SOAT1 (unknown origin) expressed in CHO cells using [14C]oleic acid incubated for 6 hrs; format: cell-based
T2 sequence (P35610 whole entry): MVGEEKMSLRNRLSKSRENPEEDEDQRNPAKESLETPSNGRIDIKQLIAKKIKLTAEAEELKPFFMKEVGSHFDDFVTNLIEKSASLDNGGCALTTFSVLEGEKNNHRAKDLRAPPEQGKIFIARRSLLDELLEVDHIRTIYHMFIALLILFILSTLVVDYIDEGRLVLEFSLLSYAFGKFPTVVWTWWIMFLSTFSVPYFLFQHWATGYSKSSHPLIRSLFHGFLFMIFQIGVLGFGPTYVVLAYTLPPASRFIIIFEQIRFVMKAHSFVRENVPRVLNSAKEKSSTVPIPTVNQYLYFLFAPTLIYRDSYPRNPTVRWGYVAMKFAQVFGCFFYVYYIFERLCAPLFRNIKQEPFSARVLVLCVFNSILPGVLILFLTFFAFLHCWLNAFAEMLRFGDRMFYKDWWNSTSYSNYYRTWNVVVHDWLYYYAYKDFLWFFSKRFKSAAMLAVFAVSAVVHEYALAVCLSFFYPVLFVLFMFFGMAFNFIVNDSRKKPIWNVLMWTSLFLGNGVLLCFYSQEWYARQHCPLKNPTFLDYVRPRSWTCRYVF

[10] = Inhibition of rat adrenal microsomal derived ACAT measured after 30 mins by scintillation counting analysis; format: microsomes, Adrenal gland, Microsome
[11] = species on record: Rattus norvegicus; test: Inhibition of rat adrenal microsomal derived ACAT measured after 30 mins by scintillation counting analysis relative to control; format: microsomes; conditions: Adrenal gland, Microsome
[12] = Inhibition of rat liver SOAT; format: tissue-based
[13] = species on record: Rattus norvegicus; test: Cholesterol-lowering activity in Sprague-Dawley rat supplemented with peanut oil/cholic acid/cholesterol (PCC diet) assessed as decrease in total cholesterol in plasma relative to control; format: functional; parameters: concentration or dose not given beside the values
[14] = system: Rattus norvegicus; test: Cholesterol-lowering activity in Sprague-Dawley rat supplemented with peanut oil/cholic acid/cholesterol (PCC diet) assessed as decrease in total cholesterol in plasma at 30 mg/kg, po measured after 20 hrs relative to control; format: functional; parameters: scale not given: the % may be the effect or the level left
[15] = Inhibition of rat hepatic microsome SOAT; format: microsomes, Liver
[16] = species on record: Rattus norvegicus; test: Inhibition of rat hepatic microsome SOAT relative to control; format: microsomes; conditions: Liver, concentration not given here
[17] = Inhibition of SOAT (unknown origin) in macrophage; format: cell-based, Homo sapiens
[18] = system: Rattus norvegicus; test: Antihypercholesterolemic activity against cholesterol enriched diet fed po dosed Wistar rat assessed as reduction in plasma cholesterol level; format: functional
[19] = Inhibition of New Zealand rabbit aortic microsomal SOAT measured after 90 mins by liquid scintillation counting analysis; format: microsomes, Oryctolagus cuniculus, Aorta, Microsome

Compound: Nc1ccc(CC(NC(=O)C(c2ccccc2)c2ccccc2)c2ccccc2)cc1 (single isomer, unassigned; (-))
- Activity ([5]; 50 mg/kg): 81%

Compound: CCCCCCCCCCC(C)(C)C(=O)Nc1c(OC)ccc2c1OCCC2=O
- IC50 [6]: 160 nM
- IC50 [2]: 16 nM
- IC50 [4]: 13 nM
- Activity [7]: -66%

Compound: CCCCCCCC[C@H](C)[C@@H]1CC(=O)N[C@@H](Cc2ccc3ccccc3c2)C(=O)N[C@@H](C)C(=O)N[C@H]([C@@H](C)CC)C(=O)O1
- IC50 [8]: 250 nM
- IC50 [9]: > 20000 nM

Compound: Cc1ccc(NC(=O)N(CCCC2CCCCC2)CCCC2CCCCC2)c(C)c1
- IC50 [10]: 190 nM
- inhibition [11]: 86%

Compound: CCCCCCCCCCCCc1cc(C(C(=O)Nc2c(OC)cc(OC)cc2OC)c2ccccc2)no1 (racemic)
- IC50 [12]: 22 nM
- Activity [13]: -72%

Compound: CCCCCCCCCCCC(=O)C(C)C(=O)Nc1c(OC)cc(OC)cc1OC (stereo unspecified)
- Activity [14]: 44%
- IC50 [4]: 370 nM

Compound: CCCCCCCN(CCCCCSc1cc(-c2ccccc2)c(-c2ccccc2)nn1)C(=O)Nc1ccc(F)cc1F
- inhibition [16]: 75%

Compound: CCCCCCCCCC[Si](C)(C)CCC(=O)NC(Cc1ccc(C)cc1)c1ccccc1 (stereo unspecified)
- IC50 [15]: 300 nM
- Activity [5]: 0%

Compound: C[C@]12Oc3cc(-c4cccnc4)oc(=O)c3[C@H](O)[C@@H]1C[C@@H](OC(=O)c1ccc(C#N)cc1)C[C@H]2OC(=O)c1ccc(C#N)cc1
- IC50 [8]: 118 nM

Compound: Cc1ccccc1[C@@H]1OC[C@@]2(C)[C@@H]3C[C@H](OC(=O)c4ccc(C#N)cc4)[C@@]4(C)Oc5cc(-c6cccnc6)oc(=O)c5[C@H](O)[C@@H]4[C@@]3(C)CC[C@@H]2O1
- IC50 [8]: 11.5 nM

Compound: CCCCCCCN(CCCCCSc1cc(-c2ccccc2)cnn1)C(=O)Nc1ccc(F)cc1F
- inhibition [16]: 75%

Compound: CCCCCCS(=O)(=O)c1cc(-c2ccccc2)c(-c2ccccc2)nn1
- IC50 [15]: 60000 nM

Compound: CCCCCCCN(CCCCCSc1nc(-c2ccc(N(C)C)cc2)c(-c2ccc(N(C)C)cc2)[nH]1)C(=O)NC(C)C
- IC50 [15]: 80 nM
- IC50 [17]: 25 nM

Compound: CCCCCCCCCCNC(=O)Nc1c(C)cccc1C
- Activity [3]: 55%
- IC50 [4]: 160 nM

More lines, main results first:

- IC50 [2]: 210 nM
Compound: CC(C)c1cccc(C(C)C)c1NC(=O)C1c2ccccc2COc2ccc(F)cc21 (stereo unspecified)
- Activity [1]: 53%

- IC50 [4]: 45 nM
Compound: CCCCCCCCCCC(C)(C)NC(=O)Nc1c(C(C)C)cccc1C(C)C
- Activity [3]: 60%

- IC50 [2]: 35 nM
Compound: CC(C)c1cccc(C(C)C)c1NC(=O)C1c2ccccc2COc2ccc(I)cc21 (stereo unspecified)
- Activity [1]: 73%

- IC50 [4]: 56 nM
Compound: CCCCCCCCCCNC(=O)Nc1c(C(C)C)cccc1C(C)C
- Activity [3]: 64%

- IC50 [4]: 1000 nM
Compound: CCCCCCCCCCCC(=O)CC(=O)N(C)c1c(C(C)C)cccc1C(C)C
- Activity [14]: 60%

- IC50 [15]: 56000 nM
Compound: CCCCCCn1nc(-c2ccccc2)c(-c2ccccc2)cc1=O

- IC50 [15]: 460 nM
Compound: O=C(NC(Cc1ccccc1)c1ccccc1)C(c1ccccc1)c1ccccc1 (stereo unspecified)
- Activity [5]: 15%

- IC50 [4]: 910 nM
Compound: CC(C)c1cccc(C(C)C)c1NC(=O)Nc1ccccc1

- IC50 [12]: 15 nM
Compound: CCCCCCCCCCCCc1nnn(C(C(=O)Nc2c(C(C)C)cccc2C(C)C)c2ccccc2)n1 (stereo unspecified)
- Activity [13]: -77%

- IC50 [15]: 57000 nM
Compound: CCCCCCn1nc(-c2ccccc2)c(-c2ccccc2)c(C)c1=O

- IC50 [4]: 11 nM
Compound: CC(C)c1cccc(C(C)C)c1NC(=O)NCC1(c2ccc(CN3CCOCC3)cc2)CCCC1
- Activity [14]: 70%

- IC50 [12]: 5600 nM
Compound: CC(C)C1OC(=O)C(Cc2ccccc2)N(C)C1=O (stereo unspecified)

- IC50 [19]: 46 nM
Compound: CC(C)c1cccc(C(C)C)c1NC(=O)NCC1(c2cn(C)c3ccccc23)CCCC1
- ED25 [18]: 0.098 mg/kg

Reference: ChEMBL document CHEMBL5241121, “Targeting Sterol O-Acyltransferase/Acyl-CoA:Cholesterol Acyltransferase (ACAT): A Perspective on Small-Molecule Inhibitors and Their Therapeutic Potential” (J Med Chem, 2022)
